Tests used:
[1] = tested on: passaged cortical stem and progenitor cell derived neural networks; format: cell-based, rat
[2] = tested on: primary cortical stem cell and progenitor cell derived neural networks; format: cell-based, rat

Row | Compound | mean spike rate (MSR) response of the network [1] | raw action potential spike activity, single channel 10 second trace [1] | mean spike rate (MSR) response of the network [2]
1 | NC(CCCP(=O)(O)O)C(=O)O (racemic) [APV, DL-2-amino-5-phosphonovaleric acid] | decrease in MSR | incremental effects of APV on both spike rate and burst pattern | No additional decrease in network activity
2 | N#Cc1cc2c(cc1[N+](=O)[O-])=NC(=O)C(=O)N=2 [CNQX, 6-cyano-7-nitroquinoxaline-2,3-dione] | further decrease in activity | near total blockade of action potentials | decrease in MSR
3 | cadmium chloride | responsive |  | 

Reference: patent US7947626B2 (priority 2006, dated 2011)
